From paper PMC7640924 (Bioorganic & Medicinal Chemistry Letters, 2020)

Tested on: SARS-CoV-2
Test: Anti-SARS-CoV-2 activity, cellular phenotypic screening
Format: cell-based
Conditions: Vero cells

| SMILES | anti-SARS-CoV-2 activity (in words) |
| --- | --- |
| O=C(CN1C(C(=O)c2ccc(F)cc2)=C(O)c2ccccc2S1(=O)=O)Nc1ccccc1 [Compound 4a, 2-(3-(4-fluorobenzoyl)-4-hydroxy-1,1-dioxido-2H-benzo[e][1,2]thiazin-2-yl)-N-phenylacetamide] | no inhibitory effect |
| O=C(CN1C(C(=O)c2ccc(F)cc2)=C(O)c2ccccc2S1(=O)=O)Nc1ccccc1Cl [Compound 4b, N-(2-Chlorophenyl)-2-(3-(4-fluorobenzoyl)-4-hydroxy-1,1-dioxido-2H-benzo[e][1,2]thiazin-2-yl)acetamide] | no inhibitory effect |
| CCNC(=O)CN1C(C(=O)c2ccccc2)=C(O)c2ccccc2S1(=O)=O [Compound 4f, 2-(3-Benzoyl-4-hydroxy-1,1-dioxido-2H-benzo[e][1,2]thiazin-2-yl)-N-ethylacetamide] | detrimental for anti-SARS-CoV-2 activities |
| O=C(C1=C(O)c2ccccc2S(=O)(=O)N1Cc1ccccc1)c1ccccc1 [Compound 5a, (2-Benzyl-4-hydroxy-1,1-dioxido-2H-benzo[e][1,2]thiazin-3-yl)(phenyl)methanone] | no anti-SARS-CoV-2 activities |
| N#Cc1cccc(C(=O)C2=C(O)c3ccccc3S(=O)(=O)N2CC(=O)c2ccc(F)c(Cl)c2)c1 [Compound 5b, 3-(2-(2-(3-Chloro-4-fluorophenyl)-2-oxoethyl)-4-hydroxy-1,1-dioxido-2H-benzo[e][1,2]thiazine-3-carbonyl)benzonitrile] | no anti-SARS-CoV-2 activities |
| N#Cc1ccc(C(=O)C2=C(O)c3ccccc3S(=O)(=O)N2CC(=O)c2ccc(F)c(Cl)c2)cc1 [Compound 5c, 4-(2-(2-(3-Chloro-4-fluorophenyl)-2-oxoethyl)-4-hydroxy-1,1-dioxido-2H-benzo[e][1,2]thiazine-3-carbonyl)benzonitrile] | no anti-SARS-CoV-2 activities |
| O=C(O)/C=C/N1C(C(=O)c2ccc(F)c(Cl)c2)=C(O)c2ccccc2S1(=O)=O [Compound 7, (E)-3-(3-(3-Chloro-4-fluorobenzoyl)-4-hydroxy-1,1-dioxido-2H-benzo[e][1,2]thiazin-2-yl)acrylic acid] | no antiviral effect |

Target: hERG (Homo sapiens, UniProt Q12809)
Test: hERG inhibition
Format: binding
Conditions: not given

hERG, sequence (Q12809 whole entry): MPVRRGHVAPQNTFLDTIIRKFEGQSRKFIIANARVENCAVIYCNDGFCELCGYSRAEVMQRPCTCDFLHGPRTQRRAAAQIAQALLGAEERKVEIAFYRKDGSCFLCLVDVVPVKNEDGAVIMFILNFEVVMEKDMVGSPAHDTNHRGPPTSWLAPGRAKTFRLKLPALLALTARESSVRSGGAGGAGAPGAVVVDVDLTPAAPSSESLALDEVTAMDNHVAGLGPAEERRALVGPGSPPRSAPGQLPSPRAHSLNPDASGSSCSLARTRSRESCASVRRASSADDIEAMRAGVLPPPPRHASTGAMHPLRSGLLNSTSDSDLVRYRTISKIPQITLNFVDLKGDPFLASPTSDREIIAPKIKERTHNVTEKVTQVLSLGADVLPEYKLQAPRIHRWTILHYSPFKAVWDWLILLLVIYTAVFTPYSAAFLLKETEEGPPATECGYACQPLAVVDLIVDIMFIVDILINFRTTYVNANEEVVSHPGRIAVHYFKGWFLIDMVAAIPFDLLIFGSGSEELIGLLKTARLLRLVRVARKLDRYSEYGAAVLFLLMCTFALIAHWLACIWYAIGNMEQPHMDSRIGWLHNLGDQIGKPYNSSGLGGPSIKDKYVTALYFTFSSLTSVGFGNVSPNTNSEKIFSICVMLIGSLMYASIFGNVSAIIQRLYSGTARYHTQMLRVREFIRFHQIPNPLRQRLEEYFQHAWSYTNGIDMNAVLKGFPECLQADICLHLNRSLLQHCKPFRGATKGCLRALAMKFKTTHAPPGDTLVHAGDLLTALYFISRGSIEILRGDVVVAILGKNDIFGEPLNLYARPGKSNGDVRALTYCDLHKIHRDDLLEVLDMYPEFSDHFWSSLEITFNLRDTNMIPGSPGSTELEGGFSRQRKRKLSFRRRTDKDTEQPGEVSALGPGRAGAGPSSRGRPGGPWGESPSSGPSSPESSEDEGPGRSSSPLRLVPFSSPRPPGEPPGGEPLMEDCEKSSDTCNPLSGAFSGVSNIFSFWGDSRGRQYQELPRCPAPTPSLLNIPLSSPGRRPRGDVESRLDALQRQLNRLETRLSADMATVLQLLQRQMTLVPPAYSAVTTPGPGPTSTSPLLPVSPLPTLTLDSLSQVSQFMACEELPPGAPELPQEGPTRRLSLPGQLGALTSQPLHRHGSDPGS

| SMILES | hERG binding (in words) |
| --- | --- |
| O=C(CN1C(C(=O)c2ccc(F)c(Cl)c2)=C(O)c2ccc(F)cc2S1(=O)=O)Nc1ccc(C(F)(F)F)cc1 [Compound 13c, 2-(3-(3-Chloro-4-fluorobenzoyl)-7-fluoro-4-hydroxy-1,1-dioxido-2H-benzo[e][1,2]thiazin-2-yl)-N-(4-(trifluoromethyl)phenyl)acetamide] | low binding with hERG |

Tested on: not listed separately
Test: Microsomal stability
Format: in vitro ADME
Conditions: human

| SMILES | microsomal stability (in words) |
| --- | --- |
| O=C(CN1C(C(=O)c2ccc(F)c(Cl)c2)=C(O)c2ccc(F)cc2S1(=O)=O)Nc1ccc(C(F)(F)F)cc1 [Compound 13c, 2-(3-(3-Chloro-4-fluorobenzoyl)-7-fluoro-4-hydroxy-1,1-dioxido-2H-benzo[e][1,2]thiazin-2-yl)-N-(4-(trifluoromethyl)phenyl)acetamide] | good microsomal stability |
